Laboratory results from PubChem BioAssay (NCI).
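These data come from cells grown in 96-well plates and exposed to compound for 48 hours at five concentrations. At the TGI there is no net growth.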

Columns and labels:
Assay in all cases: growth of human tumour cells (NCI), 48 h
[1] = tested on: MDA-MB-231 breast
[2] = tested on: SN12C renal
[3] = tested on: HS 578T breast
[4] = tested on: SNB-75 CNS
[5] = tested on: T-47D breast
[6] = tested on: NCI-H23 lung
[7] = tested on: SF-295 CNS
[8] = tested on: CCRF-CEM leukemia
[9] = tested on: SK-MEL-5 melanoma
[10] = tested on: U251 CNS
[11] = tested on: SK-MEL-28 melanoma
[12] = tested on: OVCAR-8 ovarian
[13] = tested on: ACHN renal
[14] = tested on: K-562 leukemia
[15] = tested on: UACC-62 melanoma
[16] = tested on: OVCAR-4 ovarian
[17] = tested on: HT29 colon
[18] = tested on: SF-539 CNS
[19] = tested on: SR leukemia
[20] = tested on: A549 NSCLC

COc1ccc(/C(CC2OC(=O)c3ccccc32)=N\NC(=O)C[N+](C)(C)C)cc1 (stereo not given)
TGI [1]: > 100 µM
TGI [2]: > 100 µM
TGI [3]: > 100 µM
TGI [4]: 75.6 µM
TGI [5]: > 100 µM
TGI [6]: 47.7 µM
TGI [7]: > 100 µM
TGI [8]: 72 µM
TGI [9]: 59.9 µM
TGI [10]: 36.3 µM
TGI [11]: 55.5 µM
TGI [12]: 52.9 µM
TGI [13]: > 100 µM
TGI [14]: 48.4 µM
TGI [15]: 40.1 µM
TGI [16]: 78.5 µM
TGI [17]: 40.9 µM
TGI [18]: > 100 µM
TGI [19]: 45.4 µM
TGI [20]: > 100 µM

O=[N+]([O-])c1cc(Cl)cc2cc(Br)cnc12
TGI [1]: > 31.6 µM
TGI [2]: > 31.6 µM
TGI [3]: 28.3 µM
TGI [4]: > 31.6 µM
TGI [5]: > 31.6 µM
TGI [6]: > 31.6 µM
TGI [7]: > 31.6 µM
TGI [8]: > 31.6 µM
TGI [9]: > 31.6 µM
TGI [10]: > 31.6 µM
TGI [11]: > 31.6 µM
TGI [12]: > 31.6 µM
TGI [13]: > 31.6 µM
TGI [14]: > 31.6 µM
TGI [15]: > 31.6 µM
TGI [16]: > 31.6 µM
TGI [17]: > 31.6 µM
TGI [18]: > 31.6 µM
TGI [19]: > 31.6 µM
TGI [20]: > 31.6 µM

CC(O)C1(CNc2cc(Cl)nc(N)n2)CC(CCc2ccccc2)C1 (stereo not given)
TGI [1]: 22.5 µM
TGI [2]: 20.9 µM
TGI [3]: 38.4 µM
TGI [4]: 40 µM
TGI [5]: 44.1 µM
TGI [6]: 19.4 µM
TGI [7]: 27.6 µM
TGI [8]: 94.5 µM
TGI [9]: 19.7 µM
TGI [10]: 27.6 µM
TGI [11]: 27.8 µM
TGI [12]: 32 µM
TGI [13]: 22.2 µM
TGI [14]: 86.4 µM
TGI [15]: 24.5 µM
TGI [16]: 23.3 µM
TGI [17]: 25.7 µM
TGI [18]: 32.6 µM
TGI [19]: 35.8 µM
TGI [20]: 31 µM
